In patent US20170000377A1, “SYSTEM AND METHOD FOR IMAGING FREE RADICALS” (THE GENERAL HOSPITAL CORPORATION, priority 2014, published 2017):

Experiment: OMRI of rat after MCAO and reperfusion with injected TEMPOL
Set-up: species or system Wistar rat
Settings: following ischemia/reperfusion in vivo, imaged with OMRI
Method: A 3D OMRI process can be performed using a variation of a balanced steady state free precession (b-SSFP) pulse sequence, for example, such as described in Sarracanie M et al. MRM 2013 DOI: 10.1002/mrm.24705. To achieve sensitivity of b-SSFP-based OMRI to free radical concentration, an NMR/ESR coil setup can be used. For one in vivo experiment, a single loop ESR coil 400 was arranged inside a solenoid NMR coil 402, as illustrate din FIG. 4. Under anesthesia, MCAO occlusion was performed in a 3 month old Wistar rat by insertion of filament via external carotid artery. Following 75 min MCAO and 60 min reperfusion, 3.6 μl/gbw of 300 μM TEMPOL was injected into the carotid artery after which the animal was sacrificed and OMRI imaging begun.
The OMRI enhancement image may be computed from a ratio of OMRI to MRI magnitude. […] The phase of the OMRI image in FIG. 6 provides sensitive contrast even in cases where the radical concentration is very low and the Overhauser enhancement may be small.

CC1(C)CC(O)CC(C)(C)N1[O] [TEMPOL, 4-hydroxy-2,2,6,6-tetramethylpiperidin-1-oxyl]
crossing the BBB: crossing the BBB
